Laboratory results as given in paper PMC9986241 (Signal Transduction and Targeted Therapy, 2023).

Columns and labels:
[1] = test system: A375 (BRAF V600E); experiment: Cell proliferation MTT assay; type: cell-based; settings: Homo sapiens, A-375, 72 h
Experimental: (§1) The synergism and antagonism (CI value) were determined and analyzed using CompuSyn 1.0.
(§2) For cytotoxicity test, normal NHDF (5000 cells/well) and NHEM cell line (3000 cells/well) were planted into 96-well plates. For cell proliferation assay, A375 (1500 cells/well), SK-MEL-28 (3000 cells/well), SK-MEL-2 (4000 cells/well), and HCT116 (1500 cells/well) were planted into 96-well plates, determined concentration of drug was added after culture for 24 h. The viability of the cells was detected within 72 h using MTT solution (5 mg/mL). The absorbance at 570/490 nm was quantified by the use of the microplate reader.

[2] = test system: HCT116 (KRAS mut); experiment: Cell proliferation MTT assay; type: cell-based; settings: Homo sapiens, HCT-116, 72 h
Experimental: as §1, §2

[3] = test system: SK-MEL-2 (NRAS mut); experiment: Cell proliferation MTT assay; type: cell-based; settings: Homo sapiens, SK-MEL-2, 72 h
Experimental: as §1, §2

[4] = test system: SK-MEL-28 (BRAF V600E); experiment: Cell proliferation MTT assay; type: cell-based; settings: Homo sapiens, SK-MEL-28, 72 h
Experimental: as §1, §2

[5] = target: T1, CRAF (Homo sapiens, UniProt P04049, Y340E/Y341E); experiment: Luminescent ADP detection (ADP-glo kinase) assay; type: biochemical; settings: 1–100 nM
T1 construct: purchased Signal Chem R01-13G
Experimental: (§3) After incubated with 100–400 μM ATP in kinase assay buffer for 30 min, the phosphorylation of the substrate/total substrate protein was detected by western blotting. For ADP-glo kinase assay, unconsumed ATP was depleted with the addition of ADP-Glo™. Followed by kinase detection reagent to convert ADP to ATP, consumption of ATP was detected to evaluate the kinase activity. For more details, refer to the manufacturer’s instructions of ADP-Glo™ Kinase Assay.

[6] = target: MEK1 (Homo sapiens, UniProt Q02750); experiment: Luminescent ADP detection (ADP-glo kinase) assay; type: biochemical; settings: 1–100 nM
Experimental: as §3

[7] = target: MEK2 (Homo sapiens, UniProt P36507); experiment: Luminescent ADP detection (ADP-glo kinase) assay; type: biochemical; settings: 1–100 nM
Experimental: as §3

[8] = test system: SK-MEL-2, A375, SK-MEL-28, and HCT 116; experiment: Combination index assay; type: cell-based, human; settings: erianin with vemurafenib; most of the CI; BRAF and RAS mutant cell lines
Experimental: as §1, §1

[9] = test system: HCT116 (KRAS mut) CDX; experiment: Cell-derived xenograft (CDX); type: in vivo, NOD-SCID mice; settings: 50 mg/kg, oral gavage
Experimental: (§4) Tumor volume (mm^3) = (length × width × height) × 0.52. SK-MEL-2: n = 10; A375 and SK-MEL-28: n = 8; HCT116: n = 9. b The photographs show tumors from CDX mice treated with vehicle, erianin, vemurafenib, or the combination. c The weight of the tumors was quantified and expressed as the treatment groups compared with the vehicle-treated group. […] The tissue lysates were prepared from CDX tumor tissues in each treatment group. […] Each point represents the IOD values of four quantified data from one mouse. Scale bars: 50 μm.
(§5) The animal experiments were performed according to the guidelines approved by the Zhengzhou University Institutional Animal Care and Use Committee. A375 cell line (1 × 10^7 cell/mouse), SK-MEL-28 cell line (5 × 10^6 cell/mouse), SK-MEL-2 cell (5 × 10^6 cell/mouse), and HCT116 cell line (1 × 10^7 cell/mouse) were injected subcutaneously into the NOD-SCID mice (Vital River Labs, Beijing, China). For the melanoma PDX mice model, the tumor was taken after surgical operation and implanted into the NPG (Vital River Labs, Beijing, China) mice under a sterile environment. For the colorectal cancer PDX mice model, NOD-SCID mice were selected as carriers for tumor growth. The measurement of tumor size was performed twice a week using vernier caliper and the calculation of tumor volume was done according to tumor volume (mm^3) = length × width × height × 0.52.

[10] = test system: SK-MEL-2 (NRAS mut) CDX; experiment: Cell-derived xenograft (CDX); type: in vivo, NOD-SCID mice; settings: 50 mg/kg, oral gavage
Experimental: as §4, §5

[11] = test system: B16F10 CDX; experiment: B16F10 cell xenograft; type: in vivo, C57BL-6J mice
Excerpt: Decrease of phospho-MEK1/2 was only observed in erianin and erianin/vemurafenib dual-therapy group, and even all erianin, erianin/vemurafenib dual-therapy, cobimetinib, and cobimetinib/vemurafenib dual-therapy group inhibited phosphorylation of ERK1/2 (Fig. 7d). […] Several clinical studies reveal that immune checkpoint therapies PD-1/PD-L1 synergistically promote RAF inhibitor in treatment of melanoma. Therefore, we checked the immune response involved in antitumor effect of erianin in vivo. After immunosuppression by hydrocortisone (50 mg/kg) for 1 week, B16F10 cell was implanted into C57BL-6J mice followed by vehicle or drug treatment. […]
Fig. 7 Erianin exerts antitumor efficacy in melanoma and colorectal cancer in vivo. a Tumor pharmacodynamic assay was performed in tumor-bearing NPG mice (tumor has been passaged from melanoma patient to mice for three generations). […] Tumor volume was measured once a week. […] One-way ANOVA test. ***p < 0.001. e Antitumor efficacy of erianin with or without immunity using B16F10 cell xenograft in C57BL-6J mouse. f, g Trend of tumor volume over time and tumor weight was measured after treatment on the last day of the study.
Peripheral blood or spleen lymphocytes (CD8a^+, CD4^+, and NK cell) in B16F10 CDX model after treated with erianin were quantified using BD FACSAria^TM III cell sorter. […]

MEK1, sequence (Q02750 whole entry): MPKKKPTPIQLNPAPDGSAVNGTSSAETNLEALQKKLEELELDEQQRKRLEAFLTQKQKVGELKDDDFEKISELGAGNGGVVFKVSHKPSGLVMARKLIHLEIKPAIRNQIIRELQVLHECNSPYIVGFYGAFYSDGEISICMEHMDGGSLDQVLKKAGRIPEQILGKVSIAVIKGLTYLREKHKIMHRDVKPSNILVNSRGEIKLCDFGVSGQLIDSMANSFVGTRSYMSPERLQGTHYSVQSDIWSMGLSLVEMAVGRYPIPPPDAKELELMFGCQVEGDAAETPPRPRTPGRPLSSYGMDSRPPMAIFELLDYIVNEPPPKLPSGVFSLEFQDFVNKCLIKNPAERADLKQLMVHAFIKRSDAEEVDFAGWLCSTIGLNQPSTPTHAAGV
MEK2, sequence (P36507 whole entry): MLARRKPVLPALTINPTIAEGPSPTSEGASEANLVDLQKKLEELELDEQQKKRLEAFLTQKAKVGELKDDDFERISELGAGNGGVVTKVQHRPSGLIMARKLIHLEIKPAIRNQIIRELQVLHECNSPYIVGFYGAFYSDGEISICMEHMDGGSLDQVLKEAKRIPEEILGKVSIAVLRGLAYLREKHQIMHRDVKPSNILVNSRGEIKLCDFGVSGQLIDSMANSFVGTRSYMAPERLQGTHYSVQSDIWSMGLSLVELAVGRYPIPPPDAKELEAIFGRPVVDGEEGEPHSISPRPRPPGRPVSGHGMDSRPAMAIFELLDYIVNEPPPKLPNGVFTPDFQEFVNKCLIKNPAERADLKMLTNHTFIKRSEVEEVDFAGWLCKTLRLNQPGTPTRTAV
T1 sequence (P04049 306-648 Y340E/Y341E): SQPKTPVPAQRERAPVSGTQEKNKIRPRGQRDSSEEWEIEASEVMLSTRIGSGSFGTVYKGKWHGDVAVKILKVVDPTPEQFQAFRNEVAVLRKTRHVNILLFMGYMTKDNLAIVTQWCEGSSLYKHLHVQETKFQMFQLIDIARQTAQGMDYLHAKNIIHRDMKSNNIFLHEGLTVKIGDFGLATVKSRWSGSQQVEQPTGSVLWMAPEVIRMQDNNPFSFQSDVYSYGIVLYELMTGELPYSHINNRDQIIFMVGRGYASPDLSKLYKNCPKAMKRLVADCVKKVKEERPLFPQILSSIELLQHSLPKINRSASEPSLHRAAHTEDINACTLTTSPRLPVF

COc1ccc(CCc2cc(OC)c(OC)c(OC)c2)cc1O [Erianin]
IC50 [1]: 12 ± 0.9 nM
IC50 [2]: 20.6 ± 2.2 nM
IC50 [3]: 59.7 ± 7.2 nM
IC50 [4]: 50.6 ± 1.7 nM
kinase activity (luminescence signal) [5]: inhibited the kinase activity
kinase activity (luminescence signal) [6]: inhibited the kinase activity
kinase activity (luminescence signal) [7]: inhibited the kinase activity
combination index (CI) [8]: ≤ 1
tumor volume and tumor weight [9]: inhibited tumor volume and tumor weight significantly
tumor volume and tumor weight [10]: inhibited tumor volume and tumor weight significantly
CD8a+, CD4+ T cells, and NK cells ([11]; flow cytometry after erianin treatment): increased significantly
tumor growth ([11]; monotherapy): inhibited tumor growth
